Values of other authors in US20180243207A1, “DUAL-RELEASE FLEXIBLE F[…] IN […] HOSPICE CARES OF ELDERLY PATIENTS” (priority 2017, published 2018).

What was measured:
[1] = biological target: T1, α2-GABAA receptors (Homo sapiens, UniProt P18507+P47869)
T1 sequence (P47869 29-451): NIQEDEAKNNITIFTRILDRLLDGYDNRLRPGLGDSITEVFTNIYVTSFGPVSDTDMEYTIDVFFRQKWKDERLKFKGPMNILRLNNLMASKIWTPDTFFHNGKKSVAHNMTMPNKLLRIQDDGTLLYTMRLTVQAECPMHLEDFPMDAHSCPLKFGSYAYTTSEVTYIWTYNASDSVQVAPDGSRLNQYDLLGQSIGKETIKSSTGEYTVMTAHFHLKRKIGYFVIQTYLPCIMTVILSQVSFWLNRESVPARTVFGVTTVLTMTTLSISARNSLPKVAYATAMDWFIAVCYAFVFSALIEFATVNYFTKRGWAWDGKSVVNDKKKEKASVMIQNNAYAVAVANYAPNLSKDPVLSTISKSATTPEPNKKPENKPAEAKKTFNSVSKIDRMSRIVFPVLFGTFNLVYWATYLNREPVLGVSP
T1 sequence (P18507 40-467 limits assumed): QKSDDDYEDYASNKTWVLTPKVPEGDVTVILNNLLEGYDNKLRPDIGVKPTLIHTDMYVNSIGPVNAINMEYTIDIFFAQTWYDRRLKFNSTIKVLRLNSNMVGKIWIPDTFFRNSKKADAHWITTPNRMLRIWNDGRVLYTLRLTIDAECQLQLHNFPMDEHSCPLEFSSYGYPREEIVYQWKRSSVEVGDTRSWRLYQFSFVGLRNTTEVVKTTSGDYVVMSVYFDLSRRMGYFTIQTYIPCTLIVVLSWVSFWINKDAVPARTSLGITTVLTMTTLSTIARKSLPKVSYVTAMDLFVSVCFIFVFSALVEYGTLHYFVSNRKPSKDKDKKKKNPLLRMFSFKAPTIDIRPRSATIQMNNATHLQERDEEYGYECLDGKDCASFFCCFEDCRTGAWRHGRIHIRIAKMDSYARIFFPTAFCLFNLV
T1 sequence (P28472 26-473 partner): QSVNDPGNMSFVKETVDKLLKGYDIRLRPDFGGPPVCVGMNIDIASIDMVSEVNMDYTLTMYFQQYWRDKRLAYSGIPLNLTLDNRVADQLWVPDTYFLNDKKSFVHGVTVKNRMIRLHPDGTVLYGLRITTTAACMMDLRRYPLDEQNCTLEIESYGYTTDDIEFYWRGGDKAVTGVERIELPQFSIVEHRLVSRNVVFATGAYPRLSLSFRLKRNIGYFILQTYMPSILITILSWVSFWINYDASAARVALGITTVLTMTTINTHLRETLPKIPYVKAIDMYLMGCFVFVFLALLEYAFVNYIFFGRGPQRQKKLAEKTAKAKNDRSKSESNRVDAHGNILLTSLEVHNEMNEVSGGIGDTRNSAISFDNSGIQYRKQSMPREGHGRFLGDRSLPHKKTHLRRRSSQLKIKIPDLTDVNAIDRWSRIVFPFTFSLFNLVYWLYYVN

[2] = biological target: T2, α3-GABAA receptors (Homo sapiens, UniProt P18507+P34903)
T2 sequence (P34903 29-492): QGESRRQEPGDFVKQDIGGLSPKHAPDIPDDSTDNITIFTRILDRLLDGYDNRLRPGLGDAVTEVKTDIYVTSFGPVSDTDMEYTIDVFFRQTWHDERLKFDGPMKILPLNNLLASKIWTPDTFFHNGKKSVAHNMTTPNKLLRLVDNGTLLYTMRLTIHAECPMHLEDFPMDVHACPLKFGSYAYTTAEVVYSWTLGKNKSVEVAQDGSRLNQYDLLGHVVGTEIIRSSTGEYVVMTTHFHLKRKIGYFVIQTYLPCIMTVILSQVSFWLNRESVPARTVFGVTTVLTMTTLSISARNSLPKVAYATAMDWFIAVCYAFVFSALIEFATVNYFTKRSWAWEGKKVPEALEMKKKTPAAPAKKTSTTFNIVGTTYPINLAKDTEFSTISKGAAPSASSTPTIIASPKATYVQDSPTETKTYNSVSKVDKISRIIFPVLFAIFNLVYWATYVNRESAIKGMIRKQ
T2 sequence (P18507 40-467 limits assumed): T1 sequence (P18507 40-467 limits assumed)
T2 sequence (P28472 26-473 partner): T1 sequence (P28472 26-473 partner)

O=C1Nc2ccc(Cl)cc2C(c2ccccc2Cl)=NC1O (centres unmarked) [Lorazepam]
affinity to α2-GABAA receptors [1]: intermediate
affinity to α3-GABAA receptors [2]: high
